Test results from US11623924B2, “Modulators of alpha-1 antitrypsin” (Vertex Pharmaceuticals Incorporated, priority 2018, dated 2023).
Like-named read-outs stand apart in the source and are kept apart here.

Molecular target: T1, NL20 human bronchial epithelial cells expressing human Z-AAT (Homo sapiens, UniProt P01009, E366K)
T1 construct: expressed in transfected cells; host or cells: NL20 human bronchial epithelial cells (NL20-SI line, doxycycline added)
Assay: AAT Function Assay (MSD Assay NL20-SI Cell Line)
Format: cell-based
Settings: functionally active AAT (AAT-hNE complex) in supernatant of NL20 cells expressing human Z-AAT
Procedure, shortened: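 NL20 cells expressing Z-AAT, seeded 16,000 cells/well, received compound with doxycycline (0.1 μM final) and were incubated overnight at 37° C. Supernatants, diluted 45-fold in total, reacted with excess human neutrophil elastase; AAT-elastase complex captured on anti-AAT plates, detected with Sulfo-tagged anti-elastase by MSD electrochemiluminescence, and quantified against M-AAT standards (0.156-320 ng/mL).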

T1 sequence (P01009 25-418 E366K): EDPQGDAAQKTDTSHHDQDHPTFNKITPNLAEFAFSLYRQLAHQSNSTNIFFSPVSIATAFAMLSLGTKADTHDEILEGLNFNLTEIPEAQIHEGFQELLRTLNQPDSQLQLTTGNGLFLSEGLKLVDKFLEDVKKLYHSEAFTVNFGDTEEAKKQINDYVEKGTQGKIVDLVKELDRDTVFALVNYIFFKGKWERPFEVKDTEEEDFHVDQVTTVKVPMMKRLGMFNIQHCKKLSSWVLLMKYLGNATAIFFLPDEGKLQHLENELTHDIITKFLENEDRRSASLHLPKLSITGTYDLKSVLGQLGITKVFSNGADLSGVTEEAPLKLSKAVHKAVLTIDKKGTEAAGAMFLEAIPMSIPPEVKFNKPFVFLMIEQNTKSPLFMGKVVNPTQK

| EC50 (read-out: NL20 Func. (EC50)) [µM] | SMILES | EC50 (NL20 Func. (EC50)) [µM] |
| --- | --- | --- |
| 1.16 to 3 | Cc1cc(-n2c(C(C)C)c(C(=O)O)c3cc4[nH]ncc4cc32)ccc1F [Compound 3, 5-(4-fluoro-3-methyl-phenyl)-6-isopropyl-1H-pyrrolo[2,3-f]indazole-7-carboxylic Acid] | – |
| > 3 | Cc1cc(-n2c(C(C)C)c(C(=O)N3CCOCC3)c3cc4[nH]ncc4cc32)ccc1F [Compound 4, [5-(4-fluoro-3-methyl-phenyl)-6-isopropyl-1H-pyrrolo[2,3-f]indazol-7-yl]-morpholino-methanone] | – |
| > 3 | Cc1cc(-n2c(C(C)C)c(C(=O)N3CCN(C)CC3)c3cc4[nH]ncc4cc32)ccc1F [Compound 5, [5-(4-fluoro-3-methyl-phenyl)-6-isopropyl-1H-pyrrolo[2,3-f]indazol-7-yl]-(4-methylpiperazin-1-yl)methanone] | – |
| > 3 | CCNC(=O)c1c(C(C)C)n(-c2ccc(F)c(C)c2)c2cc3cn[nH]c3cc12 [Compound 6, N-ethyl-5-(4-fluoro-3-methyl-phenyl)-6-isopropyl-1H-pyrrolo[2,3-f]indazole-7-carboxamide] | – |
| > 3 | Cc1cc(-n2c(C(C)C)c(C(=O)NC3COC3)c3cc4[nH]ncc4cc32)ccc1F [Compound 7, 5-(4-fluoro-3-methyl-phenyl)-6-isopropyl-N-(oxetan-3-yl)-1H-pyrrolo[2,3-f]indazole-7-carboxamide] | – |
| > 3 | Cc1cc(-n2c(C(C)C)c(N3CCCC3=O)c3cc4[nH]ncc4cc32)ccc1F [Compound 8, 1-[5-(4-fluoro-3-methyl-phenyl)-6-isopropyl-1H-pyrrolo[2,3-f]indazol-7-yl]pyrrolidin-2-one] | – |
| > 3 | Cc1cc(-n2c(C(C)C)c(N3CCOCC3=O)c3cc4[nH]ncc4cc32)ccc1F [Compound 9, 4-[5-(4-fluoro-3-methyl-phenyl)-6-isopropyl-1H-pyrrolo[2,3-f]indazol-7-yl]morpholin-3-one] | – |
| > 3 | Cc1cc(-n2c(C(C)C)c(C#N)c3cc4[nH]ncc4cc32)ccc1F [Compound 10, 5-(4-fluoro-3-methyl-phenyl)-6-isopropyl-1H-pyrrolo[2,3-f]indazole-7-carbonitrile] | – |
| 1.16 to 3 | Cc1cc(-n2c(C(C)C)c(S(C)(=O)=O)c3cc4[nH]ncc4cc32)ccc1F [Compound 11, 5-(4-fluoro-3-methyl-phenyl)-6-isopropyl-7-methylsulfonyl-1H-pyrrolo[2,3-f]indazole] | – |
| > 3 | C=Cc1c(C(C)C)n(-c2ccc(F)c(C)c2)c2cc3cn[nH]c3cc12 [Compound 12, 5-(4-fluoro-3-methyl-phenyl)-6-isopropyl-7-vinyl-1H-pyrrolo[2,3-f]indazole] | – |
| 1.16 to 3 | Cc1cc(-n2c(C(C)C)c(CCC(=O)O)c3cc4[nH]ncc4cc32)ccc1F [Compound 16, 3-[5-(4-fluoro-3-methyl-phenyl)-6-isopropyl-1H-pyrrolo[2,3-f]indazol-7-yl]propanoic acid] | – |
| < 1.16 | Cc1cc(-n2c(C(C)C)c(CC3(C(=O)O)CC3)c3cc4[nH]ncc4cc32)ccc1F [Compound 17, 1-[[5-(4-fluoro-3-methyl-phenyl)-6-isopropyl-1H-pyrrolo[2,3-f]indazol-7-yl]methyl]cyclopropanecarboxylic Acid] | – |
| < 1.16 | Cc1cc(-n2c(C(C)C)c([C@H]3C[C@@H](CC(=O)O)C3)c3cc4[nH]ncc4cc32)ccc1F [Compound 23] | – |
| < 1.16 | CC(C)c1c(C#N)c2cc3[nH]ncc3cc2n1-c1ccc(F)cc1 [Compound 29, 5-(4-fluorophenyl)-6-isopropyl-1H-pyrrolo[2,3-f]indazole-7-carbonitrile] | – |
| > 3 | CC(C)c1c(S(C)(=O)=O)c2cc3[nH]ncc3cc2n1-c1ccc(F)cc1 [Compound 30, 5-(4-fluorophenyl)-6-isopropyl-7-methylsulfonyl-1H-pyrrolo[2,3-f]indazole] | – |
| 1.16 to 3 | CC(C)c1c(/C=C/C(=O)O)c2cc3[nH]ncc3cc2n1-c1ccc(F)cc1 [Compound 31, (E)-3-[5-(4-fluorophenyl)-6-isopropyl-1H-pyrrolo[2,3-f]indazol-7-yl]prop-2-enoic Acid] | – |
| 1.16 to 3 | CC(C)c1c(CCC(=O)O)c2cc3[nH]ncc3cc2n1-c1ccc(F)cc1 [Compound 32, 3-[5-(4-fluorophenyl)-6-isopropyl-1H-pyrrolo[2,3-f]indazol-7-yl]propanoic Acid] | – |
| < 1.16 | CC(C)c1c(CC2(C(=O)O)CC2)c2cc3[nH]ncc3cc2n1-c1ccc(F)cc1 [Compound 33, 1-[[5-(4-fluorophenyl)-6-isopropyl-1H-pyrrolo[2,3-f]indazol-7-yl]methyl]cyclopropanecarboxylic Acid] | – |
| > 3 | CC(C)c1c(CCC(=O)O)c2cc3[nH]ncc3cc2n1-c1cccc(C(F)F)c1 [Compound 37, 3-[5-[3-(difluoromethyl)phenyl]-6-isopropyl-1H-pyrrolo[2,3-f]indazol-7-yl]propanoic Acid] | – |
| 1.16 to 3 | CC(C)c1c(CCC(=O)O)c2cc3[nH]ncc3cc2n1-c1ccc(F)c(F)c1 [Compound 38, 3-[5-(3,4-difluorophenyl)-6-isopropyl-1H-pyrrolo[2,3-f]indazol-7-yl]propanoic Acid] | – |

| EC50 (read-out: NL20 Func. (EC50)) [µM] | SMILES | EC50 (NL20 Func. (EC50)) [µM] |
| --- | --- | --- |
| 1.16 to 3 | CC(C)c1c(CC2(C(=O)O)CC2)c2cc3[nH]ncc3cc2n1-c1cccc(C(F)(F)F)c1 [Compound 39, 1-[[6-isopropyl-5-[3-(trifluoromethyl)phenyl]-1H-pyrrolo[2,3-f]indazol-7-yl]methyl]cyclopropanecarboxylic Acid] | – |
| > 3 | CC(C)c1c(CCC(=O)O)c2cc3[nH]ncc3cc2n1-c1cccc(C(F)(F)F)c1 [Compound 40, 3-[6-isopropyl-5-[3-(trifluoromethyl)phenyl]-1H-pyrrolo[2,3-f]indazol-7-yl]propanoic Acid] | – |
| 1.16 to 3 | CC(C)c1c(CCC(=O)O)c2cc3[nH]ncc3cc2n1-c1ccccc1 [Compound 41, 3-(6-isopropyl-5-phenyl-1H-pyrrolo[2,3-f]indazol-7-yl)propanoic Acid] | – |
| – | CC(C)c1c(C#N)c2cc3[nH]ncc3cc2n1-c1ccccc1 [Compound 42, 6-isopropyl-5-phenyl-1H-pyrrolo[2,3-f]indazole-7-carbonitrile] | 1.16 to 3 |
| > 3 | Cc1cc(-n2c(C(C)C)cc3cc4[nH]ncc4cc32)ccn1 [Compound 43, 6-isopropyl-5-(2-methyl-4-pyridyl)-1H-pyrrolo[2,3-f]indazole] | – |
| – | Cc1cccc(-n2c(C(C)C)c(C#N)c3cc4[nH]ncc4cc32)c1 [Compound 44, 6-isopropyl-5-(m-tolyl)-1H-pyrrolo[2,3-f]indazole-7-carbonitrile] | > 3 |
| > 3 | CC(C)c1c(C#N)c2cc3[nH]ncc3cc2n1-c1cccc(Cl)c1 [Compound 45, 5-(3-chlorophenyl)-6-isopropyl-1H-pyrrolo[2,3-f]indazole-7-carbonitrile] | – |
| > 3 | Cc1cc(-n2c(C(C)C)c(I)c3cc4[nH]nc(F)c4cc32)ccc1F [Compound 46, 3-fluoro-5-(4-fluoro-3-methyl-phenyl)-7-iodo-6-isopropyl-1H-pyrrolo[2,3-f]indazole] | – |
| > 3 | Cc1cc(-n2c(C(C)C)c(S(C)(=O)=O)c3cc4[nH]nc(F)c4cc32)ccc1F [Compound 47, 3-fluoro-5-(4-fluoro-3-methyl-phenyl)-6-isopropyl-7-methylsulfonyl-1H-pyrrolo[2,3-f]indazole] | – |
| > 3 | Cc1cc(-n2c(C(C)C)cc3c(I)c4[nH]ncc4cc32)ccc1F [Compound 48, 5-(4-fluoro-3-methyl-phenyl)-8-iodo-6-isopropyl-1H-pyrrolo[2,3-f]indazole] | – |
| > 3 | Cc1cc(-n2c(C(C)C)cc3c(C)c4[nH]ncc4cc32)ccc1F [Compound 49, 5-(4-fluoro-3-methyl-phenyl)-6-isopropyl-8-methyl-1H-pyrrolo[2,3-f]indazole] | – |
| > 3 | Cc1cc(-n2c(C(C)C)cc3c(F)c4[nH]ncc4cc32)ccc1F [Compound 50, 8-fluoro-5-(4-fluoro-3-methyl-phenyl)-6-isopropyl-1H-pyrrolo[2,3-f]indazole] | – |
| 1.16 to 3 | Cc1cc(-n2c(C(C)C)c(CCC(=O)O)c3c(C)c4[nH]ncc4cc32)ccc1F [Compound 51, 3-[5-(4-fluoro-3-methyl-phenyl)-6-isopropyl-8-methyl-1H-pyrrolo[2,3-f]indazol-7-yl]propanoic acid] | – |
| < 1.16 | Cc1cc(-n2c(C(C)C)c(CCC(=O)O)c3c(F)c4[nH]ncc4cc32)ccc1F [Compound 52, 3-[8-fluoro-5-(4-fluoro-3-methyl-phenyl)-6-isopropyl-1H-pyrrolo[2,3-f]indazol-7-yl]propanoic Acid] | – |
| < 1.16 | CC(C)c1c(CCC(=O)O)c2c(F)c3[nH]ncc3cc2n1-c1ccc(F)cc1 [Compound 53, 3-[8-fluoro-5-(4-fluorophenyl)-6-isopropyl-1H-pyrrolo[2,3-f]indazol-7-yl]propanoic Acid] | – |
| > 3 | Cc1cc(-n2c(C(C)C)c(CCC(=O)O)c3cc4[nH]nc(C)c4cc32)ccc1F [Compound 54, 3-[5-(4-fluoro-3-methyl-phenyl)-6-isopropyl-3-methyl-1H-pyrrolo[2,3-f]indazol-7-yl]propanoic Acid] | – |
| > 3 | Fc1ccc(-n2c(C3CCOCC3)cc3cc4[nH]ncc4cc32)cc1 [Compound 60, 5-(4-fluorophenyl)-6-tetrahydropyran-4-yl-1H-pyrrolo[2,3-f]indazole] | – |
| > 3 | N#Cc1c(C2CCOCC2)n(-c2ccc(F)cc2)c2cc3cn[nH]c3cc12 [Compound 61, 5-(4-fluorophenyl)-6-tetrahydropyran-4-yl-1H-pyrrolo[2,3-f]indazole-7-carbonitrile] | – |
| > 3 | CS(=O)(=O)c1c(C2CCOCC2)n(-c2ccc(F)cc2)c2cc3cn[nH]c3cc12 [Compound 62, 5-(4-fluorophenyl)-7-methylsulfonyl-6-tetrahydropyran-4-yl-1H-pyrrolo[2,3-f]indazole] | – |
